Literature values as cited in paper PMC4469068 (Endocrine-related cancer, 2012).
Values belong to the compound of their own block, whether it stands above or below them. *1 amine or outer side, *2 acyl side, *3 side chain or, on linkers, in order; H or OH if unused. Where a SMILES comes first, the peptide text is derived from it. Side-chain parts run from the residue outwards. [ ]: non-standard residue; d: D form. The star is where a group is joined. Ethylenediamine = C(CN[*:2])N[*:1]; Hyp = O=C(O)[C@@H]1C[C@@H](O)CN1; Phg = N[C@H](C(=O)O)c1ccccc1; CO = O=C([*:1])[*:2]; Bn = c1ccc(C*)cc1

How the values were obtained:
[1] = test system: pancreatic neuroendocrine tumors; conditions: ref Yao et al. 2011
[2] = test system: advanced carcinoid tumors; conditions: vs. 6 months with placebo; ref Rinke, et al. 2009
[3] = test system: cell lines derived from small intestine or pancreatic neuroendocrine tumors; conditions: in vitro; ref Kidd, et al. 2008
[4] = test system: patients with octreotide-refractory carcinoid syndrome; conditions: pasireotide 300–1200 mcg bid; ref Kvols et al. 2006
QTc interval = conditions: 1950 mcg twice daily, healthy adults; ref Novartis, 2012
patients with acromegaly = conditions: pasireotide 200–600 mcg BID; ref Petersenn et al. 2010
[5] = test system: human corticotroph or somatotroph tumor cell lines; conditions: in vitro; ref Batista, et al. 2006; Danila, et al. 2001

hyperglycemia, patients in the everolimus treatment arm ([1]; single agent, any grade): 13%
hyperglycemia categorized as grade 3 or 4 ([1]; single agent): 5%
Compound: CO[C@H]1C[C@@H]2CC[C@@H](C)[C@@](O)(O2)C(=O)C(=O)N2CCCC[C@H]2C(=O)O[C@H]([C@H](C)C[C@@H]2CC[C@@H](OCCO)[C@H](OC)C2)CC(=O)[C@H](C)/C=C(\C)[C@@H](O)[C@@H](OC)C(=O)[C@H](C)C[C@H](C)/C=C/C=C/C=C/1C [everolimus]
rate of tumor regression ([1]; everolimus alone, randomized trial): 64%

Compound: octreotide
median time to tumor progression [2]: 14.3 months

Compound: NCCCC[C@@H]1NC(=O)[C@@H](Cc2c[nH]c3ccccc23)NC(=O)[C@H](c2ccccc2)NC(=O)[C@@H]2C[C@@H](OC(=O)NCCN)CN2C(=O)[C@H](Cc2ccccc2)NC(=O)[C@H](Cc2ccc(OCc3ccccc3)cc2)NC1=O [pasireotide] (cyclo([Hyp]([CO-Ethylenediamine])[Phg][dW]KY(Bn)F))
effect on cell proliferation [3]: inhibition of cell proliferation
hyperglycemia, patients affected [4]: 27%
binding affinity (sst1; ref Schmid 2008): high binding affinity
binding affinity compared with octreotide (sst1; ref Schmid and Schoeffter 2004): greater binding affinity
binding affinity (sst5; ref Schmid 2008): high binding affinity
binding affinity compared with octreotide (sst5; ref Schmid and Schoeffter 2004): greater binding affinity
binding affinity (sst2; ref Schmid 2008): high binding affinity
binding affinity compared with octreotide (sst2; ref Schmid and Schoeffter 2004): comparable affinity
effect on QTc (QTc interval): possible QTc prolongation effect
hyperglycemia, patients affected (patients with acromegaly): 6.7%
binding affinity (sst3; ref Schmid 2008): high binding affinity
binding affinity compared with octreotide (sst3; ref Schmid and Schoeffter 2004): greater binding affinity
effect on cell proliferation [5]: suppress cell proliferation
